± gives the expanded uncertainty stated by the source.
Tests used:
[1] = refractive index (Na D-line) (dimensionless); details: 298.15 K; 101.3 kPa; Liquid; Standard Abbe refractometry
[2] = Liquid, Ebulliometric method (Recirculating still)

SMILES: CC(C)CCO [3-methylbutan-1-ol]
- refractive index [1]: 1.4042 ± 0.0004
- vapor or sublimation pressure ([2]; 404.05 K): 101.33 ± 1 kPa

SMILES: CC(=O)OCCC(C)C [3-methylbutyl ethanoate]
- refractive index [1]: 1.3977 ± 0.0004
- vapor or sublimation pressure ([2]; 415.19 K): 101.33 ± 1 kPa

SMILES: c1ccccc1 [benzene]
- vapor or sublimation pressure ([2]; 353.27 K): 101.33 ± 1 kPa

SMILES: C[S+](C)[O-] [dimethyl sulfoxide]
- refractive index [1]: 1.4779 ± 0.0004
- vapor or sublimation pressure ([2]; 463.93 K): 101.33 ± 1 kPa

SMILES: Cc1ccccc1 [toluene]
- vapor or sublimation pressure ([2]; 383.82 K): 101.33 ± 1 kPa

Source: the NIST ThermoML archive (doi:10.1021/acs.jced.6b00733)
